Laboratory results: paper PMC8091061, “Ceramide-1-phosphate transfer protein (CPTP) regulation by phosphoinositides” (The Journal of Biological Chemistry, 2021)

Key:
human CPTP (wtCPTP) = experiment: FRET from CPTP Trp/Tyr to dansyl-PE in POPC vesicles; type: binding; conditions: pH 6.6, 150 mM NaCl, EDTA, 25 °C
Text: FRET from CPTP Trp/Tyr to dansyl-PE in POPC vesicles on human CPTP (wtCPTP)

human GLTP = molecular target: T1, human GLTP (Homo sapiens, UniProt Q9NZD2); experiment: FRET intervesicular lipid transfer; type: biochemical; conditions: labelled compound; POPC donor to POPC acceptor vesicles, pH 6.6, 150 mM NaCl, EDTA, 25 °C; transfer cargo, not chemically converted
T1 sequence (Q9NZD2 1-209): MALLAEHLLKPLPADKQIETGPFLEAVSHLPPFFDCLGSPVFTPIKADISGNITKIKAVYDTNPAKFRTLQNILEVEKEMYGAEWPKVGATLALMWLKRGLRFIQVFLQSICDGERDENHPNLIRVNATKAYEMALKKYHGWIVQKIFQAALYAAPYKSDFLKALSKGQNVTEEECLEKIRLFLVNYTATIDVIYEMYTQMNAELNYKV

[1] = apparent Kd for POPC vesicles with 10 mol% lipid and 2 mol% dansyl-PE (vesicle PC concentration, not free lipid)

| Kd (human CPTP (wtCPTP); [1]) [nM] | Compound | other results |
| --- | --- | --- |
| 750 ± 90 | CCCCCCCC/C=C\CCCCCCCC(=O)OC[C@H](COP(=O)(O)O[C@@H]1[C@H](O)[C@H](O)[C@@H](O)[C@H](O)[C@H]1O)OC(=O)CCCCCCC/C=C\CCCCCCCC [PI, 1,2-dioleoyl-sn-glycero-3-phospho-(1'-myo-inositol)] |  |
|  | CCCCCCCCCCCCC/C=C/[C@@H](O)[C@H](CO[C@@H]1O[C@H](CO)[C@H](O)[C@H](O)[C@H]1O)NC(=O)CCCCCCCCC/C=C/c1c2ccccc2cc2ccccc12 [AV-GalCer] | FRET intervesicular lipid transfer (human GLTP): GalCer transfer rates by GLTP were unaffected by PI and PI-3P |
| 260 ± 30 | CCCCCCCC/C=C\CCCCCCCC(=O)OC[C@H](COP(=O)(O)O[C@H]1[C@H](O)[C@@H](O)[C@H](OP(=O)(O)O)[C@@H](O)[C@H]1O)OC(=O)CCCCCCC/C=C\CCCCCCCC [PI-4P, 1,2-dioleoyl-sn-glycero-3-phospho-(1'-myo-inositol-4'-phosphate)] |  |
| 290 ± 40 | PI-3P |  |
| 260 ± 40 | CCCCCCCC/C=C\CCCCCCCC(=O)OC[C@H](COP(=O)(O)O[C@@H]1[C@H](O)[C@H](O)[C@@H](OP(=O)(O)O)[C@H](OP(=O)(O)O)[C@H]1O)OC(=O)CCCCCCC/C=C\CCCCCCCC [PI-(4,5)P2, 1,2-dioleoyl-sn-glycero-3-phospho-(1'-myo-inositol-4',5'-bisphosphate)] |  |
|  | CCCCCCCC/C=C\CCCCCCCC(=O)O[C@H](COC(=O)CCCCCCCCCCCCCCC)COP(=O)([O-])OCC[N+](C)(C)C [POPC, 1-Palmitoyl-2-oleyl-sn-glycero-3-phosphocholine] | Kd (human CPTP (wtCPTP); pure POPC vesicles with 2 mol% dansyl-PE (apparent, vesicle PC concentration)): 1760 ± 200 nM |
